Measurements reported in patent publication US12478617B2, “Lipidated peptide inhibitors of interleukin-23 receptor” (JANSSEN BIOTECH, INC., priority 2021, dated 2025).
Read-outs that look alike come from different tables or passages of the source. Starred links: 1 amine or outer side, 2 acyl side, 3 side chain; linkers in the order of their positions; H or OH if unused. Positions of bridges follow the written chain, without caps; N, C: chain ends. Non-standard residues stand in square brackets, D forms with d. Residues, ends and D or L forms follow the SMILES beside them. Groups on a side chain read outwards from the residue. *: point of attachment. X6 = C[N+](C)(CCNC(=O)CCCCCCCCCCCCCCCCC(=O)O)CC(=O)*; X5 = O=C(O)CCCCCCCCCCCCCCCCC(=O)N[C@@H](CCN*)C(=O)O; Trp(7-Me) = Cc1cccc2c(C[C@H](N)C(=O)O)c[nH]c12; C18 diacid = O=C(O)CCCCCCCCCCCCCCCCC(=O)*; γGlu = O=C(O)[C@H](CCC(=O)[*:2])N[*:1]; 2Nal = N[C@@H](Cc1ccc2ccccc2c1)C(=O)O; AEF = NCCOc1ccc(C[C@H](N)C(=O)O)cc1; Stearoyl = CCCCCCCCCCCCCCCCCC(=O)*; Palmitoyl = CCCCCCCCCCCCCCCC(=O)*; 3Pal = N[C@@H](Cc1cccnc1)C(=O)O; Pen = CC(C)(S)[C@H](N)C(=O)O; Thp = NC1(C(=O)O)CCOCC1; AEEA = NCCOCCOCC(=O)O; Sar = CNCC(=O)O

Molecular target: T1, IL-23R (Homo sapiens, UniProt Q5VWK5)
T1 construct: HEK293 cells containing IL-23R, IL-12RP31 and a firefly luciferase reporter gene driven by a STAT-inducible promoter (Promega); host or cells: HEK293
T1 sequence (Q5VWK5 24-629): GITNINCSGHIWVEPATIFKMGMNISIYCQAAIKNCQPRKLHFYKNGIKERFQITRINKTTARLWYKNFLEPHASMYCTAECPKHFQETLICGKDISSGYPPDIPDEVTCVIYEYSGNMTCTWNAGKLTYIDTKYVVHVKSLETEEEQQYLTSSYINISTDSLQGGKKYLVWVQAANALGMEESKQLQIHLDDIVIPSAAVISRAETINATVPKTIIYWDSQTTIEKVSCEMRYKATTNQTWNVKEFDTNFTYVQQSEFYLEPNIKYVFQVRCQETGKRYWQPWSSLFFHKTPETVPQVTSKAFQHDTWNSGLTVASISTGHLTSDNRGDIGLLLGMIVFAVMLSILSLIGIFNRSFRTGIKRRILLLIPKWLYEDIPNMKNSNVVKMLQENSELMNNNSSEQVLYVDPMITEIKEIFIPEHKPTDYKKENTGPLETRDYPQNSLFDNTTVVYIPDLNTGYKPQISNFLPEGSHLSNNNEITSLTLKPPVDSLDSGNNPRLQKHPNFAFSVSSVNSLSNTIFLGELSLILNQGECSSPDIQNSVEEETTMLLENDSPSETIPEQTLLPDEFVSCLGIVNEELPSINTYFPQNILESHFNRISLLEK
Assay: IL23R Reporter Assay
Format: cell-based
Procedure, shortened: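 Reporter cells read out IL-23-driven STAT3 activation; compounds were serially diluted in DMSO. After 5 h at 37 °C, 5% CO2, cells were brought to 20 °C and luminescence was measured with BioGlo reagent.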

| IC50 [nM] | IC50 (IL23R reporter assay, HEK293 cells with IL-23R and STAT-inducible luciferase reporter, 10 ng/mL IL-23, 5 h, Table 5b 'IL-23 Binding Data') [nM] | Compound |
| --- | --- | --- |
| 0.052 |  | CCCCCCCCCCCCCCCCCC(=O)N[C@@H](CCC(=O)NCCCC[C@H](NC(=O)C1(NC(=O)[C@H](Cc2ccc3ccccc3c2)NC(=O)[C@H](Cc2ccc(OCCN)cc2)NC(=O)[C@H]2NC(=O)[C@H](CCCCNC(C)=O)NC(=O)[C@H](Cc3c[nH]c4c(C)cccc34)NC(=O)[C@H]([C@@H](C)O)NC(=O)[C@H](CC(N)=O)NC(=O)[C@@H](NC(C)=O)C(C)(C)SSC2(C)C)CCOCC1)C(=O)N[C@@H](CC(N)=O)C(=O)N[C@@H](Cc1cccnc1)C(=O)N(C)CC(N)=O)C(=O)O [Example 31, MeCO-Pen*-N-T-7MeW-K(Ac)-Pen*-AEF-2Nal-THP-K(gEC18)-N-3Pya-Sar-CONH2] (Ac-[Pen]NT[Trp(7-Me)]K(Ac)[Pen][AEF][2Nal][Thp]K([γGlu-Stearoyl])N[3Pal][Sar]-NH2; disulfide 1-6) |
|  | 1280 | MeCO-r-Pen(3)-N15-T-7MeW-K(Ac)-Pen(3)-AEF-2Nal-THP-E-N15-3Pya-Sar-K(PEG2PEG2gEC18OH)-CONH2 [Compound 354] |
| 0.24 |  | CC(=O)NCCCC[C@@H]1NC(=O)[C@H](Cc2c[nH]c3c(C)cccc23)NC(=O)[C@H]([C@@H](C)O)NC(=O)[C@H](CC(N)=O)NC(=O)[C@@H](NC(=O)[C@@H](CCCNC(=N)N)NC(C)=O)C(C)(C)SSC(C)(C)[C@@H](C(=O)N[C@@H](Cc2ccc(OCCN)cc2)C(=O)N[C@@H](Cc2ccc3ccccc3c2)C(=O)NC2(C(=O)N[C@@H](CCCCNC(C)=O)C(=O)N[C@@H](CC(N)=O)C(=O)N[C@@H](Cc3cccnc3)C(=O)N(C)CC(=O)NCCOCCOCC(=O)NCCOCCOCC(=O)NCC[C@H](NC(=O)CCCCCCCCCCCCCCCCC(=O)O)C(=O)O)CCOCC2)NC1=O [Example 129, MeCO-r-Pen*-N-T-7MeW-K(Ac)-Pen*-AEF-2Nal-THP-K(Ac)-N-3Pya-Sar-PEG2PEG2gDabC18OH-COOH] (Ac-[dR][Pen]NT[Trp(7-Me)]K(Ac)[Pen][AEF][2Nal][Thp]K(Ac)N[3Pal][Sar][AEEA][AEEA]-X5; disulfide 2-7) |
| 0.3 |  | CC(=O)NCCCC[C@@H]1NC(=O)[C@H](Cc2c[nH]c3c(C)cccc23)NC(=O)[C@H]([C@@H](C)O)NC(=O)[C@H](CC(N)=O)NC(=O)[C@@H](NC(=O)[C@@H](CCCNC(=N)N)NC(C)=O)C(C)(C)SSC(C)(C)[C@@H](C(=O)N[C@@H](Cc2ccc(OCCN)cc2)C(=O)N[C@@H](Cc2ccc3ccccc3c2)C(=O)NC2(C(=O)N[C@@H](CCCCNC(=O)COCCOCCNC(=O)COCCOCCNC(=O)[C@H]3CCCN3C(=O)CCCCCCCCCCCCCCCCC(=O)O)C(=O)N[C@@H](CC(N)=O)C(=O)N[C@@H](Cc3cccnc3)C(=O)N(C)CC(N)=O)CCOCC2)NC1=O [Example 57, MeCO-r-Pen*-N-T-7MeW-K(Ac)-Pen*-AEF-2Nal-THP-K(PEG2PEG2pC18OH)-N-3Pya-Sar-CONH2] (Ac-[dR][Pen]NT[Trp(7-Me)]K(Ac)[Pen][AEF][2Nal][Thp]K([AEEA-AEEA-dP-C18 diacid])N[3Pal][Sar]-NH2; disulfide 2-7) |
| 0.13 |  | CC(=O)NCCCC[C@@H]1NC(=O)[C@H](Cc2c[nH]c3c(C)cccc23)NC(=O)[C@H]([C@@H](C)O)NC(=O)[C@H](CCCCNC(=O)COCCOCCNC(=O)COCCOCCNC(=O)[C@H]2CCCN2C(=O)CC[C@H](NC(=O)CCCCCCCCCCCCCCCCC(=O)O)C(=O)O)NC(=O)[C@@H](NC(=O)[C@@H](CCCNC(=N)N)NC(C)=O)C(C)(C)SSC(C)(C)[C@@H](C(=O)N[C@@H](Cc2ccc(OCCN)cc2)C(=O)N[C@@H](Cc2ccc3ccccc3c2)C(=O)NC2(C(=O)N[C@@H](CCCCNC(C)=O)C(=O)N[C@@H](CC(N)=O)C(=O)N[C@@H](Cc3cccnc3)C(=O)N(C)CC(N)=O)CCOCC2)NC1=O [Example 96, MeCO-r-Pen*-K(PEG2PEG2pgEC18OH)-T-7MeW-K(Ac)-Pen*-AEF-2Nal-THP-K(Ac)-N-3Pya-Sar-CONH2] (Ac-[dR][Pen]K([AEEA-AEEA-dP-γGlu-C18 diacid])T[Trp(7-Me)]K(Ac)[Pen][AEF][2Nal][Thp]K(Ac)N[3Pal][Sar]-NH2; disulfide 2-7) |
| 0.078 |  | CC(=O)NCCCC[C@@H]1NC(=O)[C@H](Cc2c[nH]c3c(C)cccc23)NC(=O)[C@H]([C@@H](C)O)NC(=O)[C@H](CC(N)=O)NC(=O)[C@@H](NC(C)=O)C(C)(C)SSC(C)(C)[C@@H](C(=O)N[C@@H](Cc2ccc(OCCN)cc2)C(=O)N[C@@H](Cc2ccc3ccccc3c2)C(=O)NC2(C(=O)N[C@@H](CCCCNC(=O)COCCOCCNC(=O)COCCOCCNC(=O)CCCCCCCCCCCCCCCCC(=O)O)C(=O)N[C@@H](CC(N)=O)C(=O)N[C@@H](Cc3cccnc3)C(=O)N(C)CC(N)=O)CCOCC2)NC1=O [Example 41, MeCO-Pen*-N-T-7MeW-K(Ac)-Pen*-AEF-2Nal-THP-K(PEG2PEG2C18OH)-N-3Pya-Sar-CONH2] (Ac-[Pen]NT[Trp(7-Me)]K(Ac)[Pen][AEF][2Nal][Thp]K([AEEA-AEEA-C18 diacid])N[3Pal][Sar]-NH2; disulfide 1-6) |
| 0.096 |  | CCCCCCCCCCCCCCCC(=O)N[C@@H](CCC(=O)NCCCC[C@H](NC(=O)C1(NC(=O)[C@H](Cc2ccc3ccccc3c2)NC(=O)[C@H](Cc2ccc(OCCN)cc2)NC(=O)[C@H]2NC(=O)[C@H](CCCCNC(C)=O)NC(=O)[C@H](Cc3c[nH]c4c(C)cccc34)NC(=O)[C@H]([C@@H](C)O)NC(=O)[C@H](CC(N)=O)NC(=O)[C@@H](NC(C)=O)C(C)(C)SSC2(C)C)CCOCC1)C(=O)N[C@@H](CC(N)=O)C(=O)N[C@@H](Cc1cccnc1)C(=O)N(C)CC(N)=O)C(=O)O [Example 75, MeCO-Pen*-N-T-7MeW-K(Ac)-Pen*-AEF-2Nal-THP-K(gEC16)-N-3Pya-Sar-CONH2] (Ac-[Pen]NT[Trp(7-Me)]K(Ac)[Pen][AEF][2Nal][Thp]K([γGlu-Palmitoyl])N[3Pal][Sar]-NH2; disulfide 1-6) |
| 0.2 |  | CC(=O)NCCCC[C@H](NC(=O)C1(NC(=O)[C@H](Cc2ccc3ccccc3c2)NC(=O)[C@H](Cc2ccc(OCCN)cc2)NC(=O)[C@H]2NC(=O)[C@H](CCCCNC(=O)COCCOCCNC(=O)COCCOCCNC(=O)CC[C@H](NC(=O)CCCCCCCCCCCCCCCCC(=O)O)C(=O)O)NC(=O)[C@H](Cc3c[nH]c4c(C)cccc34)NC(=O)[C@H]([C@@H](C)O)NC(=O)[C@H](CC(N)=O)NC(=O)[C@@H](NC(=O)[C@@H](CCCNC(=N)N)NC(C)=O)C(C)(C)SSC2(C)C)CCOCC1)C(=O)N[C@@H](CC(N)=O)C(=O)N[C@@H](Cc1cccnc1)C(=O)N(C)CC(N)=O [Example 88, MeCO-r-Pen*-N-T-7MeW-K(PEG2PEG2gEC18OH)-Pen*-AEF-2Nal-THP-K(Ac)-N-3Pya-Sar-CONH2] (Ac-[dR][Pen]NT[Trp(7-Me)]K([AEEA-AEEA-γGlu-C18 diacid])[Pen][AEF][2Nal][Thp]K(Ac)N[3Pal][Sar]-NH2; disulfide 2-7) |
| 0.073 |  | CC(=O)NCCCC[C@@H]1NC(=O)[C@H](Cc2c[nH]c3c(C)cccc23)NC(=O)[C@H]([C@@H](C)O)NC(=O)[C@H](CC(N)=O)NC(=O)[C@@H](NC(C)=O)C(C)(C)SSC(C)(C)[C@@H](C(=O)N[C@@H](Cc2ccc(OCCN)cc2)C(=O)N[C@@H](Cc2ccc3ccccc3c2)C(=O)NC2(C(=O)N[C@@H](CCCCNC(=O)COCCOCCNC(=O)COCCOCCNC(=O)CC[C@H](NC(=O)C[N+](C)(C)CCNC(=O)CCCCCCCCCCCCCCCCC(=O)O)C(=O)O)C(=O)N[C@@H](CC(N)=O)C(=O)N[C@@H](Cc3cccnc3)C(=O)N(C)CC(N)=O)CCOCC2)NC1=O [Example 123, MeCO-Pen*-N-T-7MeW-K(Ac)-Pen*-AEF-2Nal-THP-K(PEG2PEG2 gE SP6 C18OH)-N-3Pya-Sar-CONH2] (Ac-[Pen]NT[Trp(7-Me)]K(Ac)[Pen][AEF][2Nal][Thp]K([AEEA-AEEA-γGlu-X6])N[3Pal][Sar]-NH2; disulfide 1-6) |
| 0.15 |  | CC(=O)NCCCC[C@@H]1NC(=O)[C@H](Cc2c[nH]c3c(C)cccc23)NC(=O)[C@H]([C@@H](C)O)NC(=O)[C@H](CCCCNC(=O)COCCOCCNC(=O)CC[C@H](NC(=O)CCCCCCCCCCCCCCCCC(=O)O)C(=O)O)NC(=O)[C@@H](NC(=O)[C@@H](CCCNC(=N)N)NC(C)=O)C(C)(C)SSC(C)(C)[C@@H](C(=O)N[C@@H](Cc2ccc(OCCN)cc2)C(=O)N[C@@H](Cc2ccc3ccccc3c2)C(=O)NC2(C(=O)N[C@@H](CCCCNC(C)=O)C(=O)N[C@@H](CC(N)=O)C(=O)N[C@@H](Cc3cccnc3)C(=O)N(C)CC(N)=O)CCOCC2)NC1=O [Example 52, MeCO-r-Pen*-K(PEG2gE C18OH)-T-7MeW-K(Ac)-Pen*-AEF-2Nal-THP-K(Ac)-N-3Pya-Sar-CONH2] (Ac-[dR][Pen]K([AEEA-γGlu-C18 diacid])T[Trp(7-Me)]K(Ac)[Pen][AEF][2Nal][Thp]K(Ac)N[3Pal][Sar]-NH2; disulfide 2-7) |
